Results published in US20080160101A1, “Composition For Use Against One Or More Pathogens” (Bionext, priority 2004, published 2008).
Values joined by “and” are separate entries in the source; they are usually repeats but may differ in a detail not shown here. Equal values may be shown once. “Also recorded” adds a separate entry of the source.

Experiments:
Penicillium expansum = assay: Protection of wounded apples against postharvest rot caused by Penicillium expansum (lesion diameter, percentage of protection); format: in vivo; parameters: Average infection: unit not given here
Protocol: Apples (Malus domestica Borkh cv. Golden) were harvested from commercial orchards maintained with standard cultural practices in Belgium and placed in regular long term storage. Commercial class I fruits were used. They were bought from wholesale dealers and stored in a cold room at 4±1° C. for maximum 15 days before use.
Penicillium expansum (blue mould) strains were initially isolated from apples in Gembloux Belgium. Conidia from pathogen were put in suspension in a glycerol solution (25%) and stored at −70° C. Starting from this stored material, the fungal strain was transferred to PDA medium at 25° C. Conidial suspensions were prepared in an aqueous sterile solution of Tween 20 (0.05%), and were adjusted to the required concentration (10^6 spores/ml) using a Bürker cell.
The antagonistic yeast strain was Candida oleophila Montrocher deposited under number 40564 at the BBCM™/MUCL Culture Collection of the Mycotheque de l'Universite Catholique de Louvain, hereinafter designated as “strain 0”.
This antagonistic yeast strain was isolated from apple surface and stored at −70° C. in a glycerol solution (25%). Before use, the yeast strain was subcultured three times successively at 24 hours intervals on PDA (Potato Dextrose Agar). At the third generation, yeast cells were removed from the culture medium and suspended in isotonic water (NaCl 0.85%). Suspension concentrations were adjusted to the required values after the establishment of a regression line in relation with the micro-organisms suspension absorbance (at 595 nm) and the number of colony forming units (cfu) of the same suspension spread onto PDA.
Fruits were disinfected by dipping for 2 minutes in sodium hypochlorite (10% of the commercial product). They were rinsed in sterile water and dried out under laminar flux before being wounded by removing 4 mm diameter and 2-3 mm deep blocks of tissue from three sites 4-5 cm apart along one side of the surface of the fruits.
The wounds were treated by application of 40 μl of compositions of the state of the art or compositions according to the invention.
After a 24 h at 20° C. incubation period in plastic boxes, the wounds were inoculated with 40 μl of the respective conidial suspensions of the pathogens. The fruits were incubated at 25° C.
[…] At least five fruits (15 wounds) were used per treatment. Most of the time, 15 fruits and 45 wounds were used per treatment.
The percentage of protection provided by the different treatments was calculated from the diameter of lesion caused by the fruit rot agent after the incubation time using the following formula: […]
wherein Y is the percentage of protection; DT is the mean diameter of lesions for the untreated control and DX is the mean diameter of lesions for the treated fruits.
The effect of the compositions according to the invention against postharvest apple rots caused by P. expansum was evaluated under controlled conditions.
(§1) The apples were wounded as described in Example 2 and treated by application of compositions comprising a salt according to the invention and 10^5 cfu C. oleophila, or compositions of the state of the art.
After incubation, the wounds were inoculated with Penicillum expansum. The fruits are further incubated. […] The percentage of protection provided by the different treatments was calculated as described in Example 2.
as §1

Botrytis cinerea = assay: Protection of wounded apples against Botrytis cinerea (lesion diameter, percentage of protection); format: in vivo; conditions: for Efficiency % / Average infection: Table 10, salt + strain O 10^5, CaCl2 20 g/l, CG 2 g/l, CGt 1.805 g/l, TC 0.848 g/l, PC 0.964 g/l, 5 days; for results of combination of salt with C. oleophila, in words (conclusions): salt combined with C. oleophila, apples, salts tested only in Example 5
[1] = Table 8, salt + strain O 10^5, CaCl2 20 g/l, CG 2 g/l, CCa 0.47 g/l, CBC 0.762 g/l, CPT 0.486 g/l, CPM 1.485 g/l, 7 days
[2] = Table 9, salt + strain O 10^5, CaCl2 20 g/l, CG 2 g/l, CCa 0.47 g/l, CBC 0.762 g/l, CPT 0.486 g/l, CPM 1.485 g/l, 11 days
[3] = salt + strain O 10^5 cfu/ml compared with strain O alone
[4] = salt combined with C. oleophila, apples
[5] = Table 6a, salt + strain O 10^5, CG 2 g/l, TC 0.87 g/l, CCa 0.47 g/l, CL 1.34 g/l, CLG 1.3 g/l, CA 1.96 g/l, 7 days
[6] = Table 6b, salt + strain O 10^5, CG 2 g/l, TC 0.87 g/l, CCa 0.47 g/l, CL 1.34 g/l, CLG 1.3 g/l, CA 1.96 g/l, 7 days
[7] = Table 3, first series, CG 2 g/l + strain O 10^5 cfu/ml, 7 days
[8] = Table 4, second series, CG 2 g + strain O 10^5 cfu/ml, 7 days
[9] = Table 5, third series, CG 2 g + strain O 10^5 cfu/ml, 7 days
[10] = Table 7, salt + strain O 10^5, CaCl2 20 g/l, CG 2 g/l, TC 0.87 g/l, CCA 0.47 g/l

| Molecule | Average infection (Penicillium expansum; [1]) | Efficiency % (Penicillium expansum; [1]) | Average infection (Penicillium expansum; [2]) | Efficiency % (Penicillium expansum; [2]) | results of combination of salt with C. oleophila, in words (conclusions) (Penicillium expansum; [4]) | Average infection (Penicillium expansum; [5]) | Efficiency % (Penicillium expansum; [5]) | Average infection (Penicillium expansum; [6]) | Efficiency % (Penicillium expansum; [6]) | Efficiency % (Botrytis cinerea) | further results |
| --- | --- | --- | --- | --- | --- | --- | --- | --- | --- | --- | --- |
| O=P([O-])(O)O.O=P([O-])(O)O.[Ca+2] [CPM, calcium phosphate monobasic] | 0.1 | 94.4% | 0.7 | 86.6% | Very good results | – | – | – | – | – | protection against P. expansum, in words (Penicillium expansum; [3]): good protection |
| calcium ascorbate | – | – | – | – | – | 5.4 | 70.9% | 5.31 | 86.7% | – | results of combination of salt with C. oleophila, in words (conclusions) (Penicillium expansum; in vivo): Very good results |
| calcium lactogluconate [CLG] | – | – | – | – | Very good results | 5.6 | 69.4% | 6.21 | 86.3% | – | – |
| O=[N+]([O-])[O-].O=[N+]([O-])[O-].[Ca+2] [CN, Calcium Nitrate, reference compound] | – | – | – | – | – | – | – | – | – | – | Average infection (Penicillium expansum; in vivo): 7.6 and 10.9; protection against P. expansum, in words (Penicillium expansum; in vivo): less efficient |
| calcium bicarbonate [CBC] | 0.5 | 76.5% | 2.1 | 59.0% | Very good results | – | – | – | – | – | protection against P. expansum, in words (Penicillium expansum; [3]): good protection |
| calcium gluconate [CG] | 0.5 | 77.4% | 1.5 | 70.5% | Very good results | 4.8 | 73.8% | 6.50 | 74.2% | 60.7% | Average infection (Penicillium expansum; [7]): 1.5; Protection Efficiency % (Penicillium expansum; [7]): 87.3%; Average infection (Penicillium expansum; [8]): 1.2; Protection Efficiency % (Penicillium expansum; [8]): 90.7%; Average infection (Penicillium expansum; [9]): 2.7; Protection Efficiency % (Penicillium expansum; [9]): 79.3%; Average infection (Penicillium expansum; [10]): 1.7; Efficiency % (Penicillium expansum; [10]): 93.5%; protection against P. expansum, in words (Penicillium expansum; [3]): improved the protection; also recorded: better and enhanced efficacy; protection against P. expansum, in words (Penicillium expansum; salt + strain O 10^5 cfu/ml compared with strain O alone, listed as calcium gluconate): good protection |
| O=P([O-])([O-])[O-].O=P([O-])([O-])[O-].[Ca+2].[Ca+2].[Ca+2] [CPT, calcium phosphate tribasic] | 0.4 | 84.1% | 0.9 | 82.1% | Very good results | – | – | – | – | – | protection against P. expansum, in words (Penicillium expansum; [3]): good protection |
| [Ca+2].[Cl-].[Cl-] [CaCl2, reference compound] | 0.3 | 87.6% | 0.6 | 87.7% | – | – | – | – | – | 82.4% | Average infection (Penicillium expansum; [10]): 0.7; Efficiency % (Penicillium expansum; [10]): 97.4%; Average infection (Botrytis cinerea): 0.3 |
| N[C@@H](CCC(=O)[O-])C(=O)[O-].[Ca+2] [CGt, calcium glutamate] | – | – | – | – | – | – | – | – | – | 51.3% | Average infection (Botrytis cinerea): 0.8 |
| O=C([O-])CC(O)(CC(=O)[O-])C(=O)[O-].O=C([O-])CC(O)(CC(=O)[O-])C(=O)[O-].[Ca+2].[Ca+2].[Ca+2] [TC, tricalcium citrate] | – | – | – | – | – | 2.8 | 84.8% | 6.67 | 83.3% | 78.9% | Average infection (Penicillium expansum; [10]): 1.0; Efficiency % (Penicillium expansum; [10]): 96.4%; results of combination of salt with C. oleophila, in words (conclusions) (Penicillium expansum; in vivo): Very good results; Average infection (Botrytis cinerea): 0.3 |
| O=C([O-])[O-].[Ca+2] [CCa, calcium carbonate] | – | – | – | – | – | – | – | – | – | – | Efficiency % (Penicillium expansum; in vivo): 77.9% and 92.8% and 97.2% and 88.6% and 85.1%; protection against P. expansum, in words (Penicillium expansum; in vivo): good protection; results of combination of salt with C. oleophila, in words (conclusions) (Penicillium expansum; in vivo): Very good results |
| N[C@@H](CCC(=O)[O-])C(=O)[O-].[K+].[K+] [potassium glutamate] | – | – | – | – | – | – | – | – | – | – | results of combination of salt with C. oleophila, in words (conclusions) (Botrytis cinerea): Very good results |
| O=C([O-])CC(O)(CC(=O)[O-])C(=O)[O-].[K+].[K+].[K+] [PC, potassium citrate] | – | – | – | – | – | – | – | – | – | 66.4% | Average infection (Botrytis cinerea): 0.5; results of combination of salt with C. oleophila, in words (conclusions) (Botrytis cinerea): Very good results |
| CC(O)C(=O)[O-].CC(O)C(=O)[O-].[Ca+2] (stereo not drawn) [CL, calcium lactate] | – | – | – | – | – | 7.7 | 58.1% | 6.06 | 82.5% | – | results of combination of salt with C. oleophila, in words (conclusions) (Penicillium expansum; in vivo): Very good results |
